Laboratory results as given in PubChem BioAssay (NCI).
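Assay format: 96-well plates, 48-hour exposure. Abbreviation: GI50, concentration required for 50% inhibition of growth. TGI marks complete inhibition of growth.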

Key:
Test in all cases: DTP human tumour cell line panel, 48 h
[1] = test system: 786-0 renal
[2] = test system: A498 renal
[3] = test system: A549 NSCLC
[4] = test system: ACHN renal
[5] = test system: BT-549 breast
[6] = test system: CAKI-1 renal
[7] = test system: CCRF-CEM leukemia
[8] = test system: COLO 205 colon
[9] = test system: DU-145 prostate
[10] = test system: EKVX NSCLC
[11] = test system: HCC-2998 colon
[12] = test system: HCT-116 colon
[13] = test system: HCT-15 colon
[14] = test system: HL-60(TB) leukemia
[15] = test system: HOP-62 NSCLC
[16] = test system: HOP-92 NSCLC
[17] = test system: HS 578T breast
[18] = test system: HT29 colon
[19] = test system: IGROV1 ovarian
[20] = test system: K-562 leukemia
[21] = test system: KM12 colon
[22] = test system: LOX IMVI melanoma
[23] = test system: M14 melanoma
[24] = test system: MALME-3M melanoma
[25] = test system: MCF7 breast
[26] = test system: MDA-MB-231 breast
[27] = test system: MDA-MB-435
[28] = test system: MDA-MB-468 breast
[29] = test system: MOLT-4 leukemia
[30] = test system: NCI-H226 lung
[31] = test system: NCI-H23 lung
[32] = test system: NCI-H460 lung
[33] = test system: NCI-H522 lung
[34] = test system: NCI/ADR-RES ovarian
[35] = test system: OVCAR-3 ovarian
[36] = test system: OVCAR-4 ovarian
[37] = test system: OVCAR-5 ovarian
[38] = test system: OVCAR-8 ovarian
[39] = test system: PC-3 prostate
[40] = test system: RPMI-8226 leukemia
[41] = test system: RXF 393 renal
[42] = test system: SF-268 CNS
[43] = test system: SF-295 CNS
[44] = test system: SF-539 CNS
[45] = test system: SK-MEL-2 melanoma
[46] = test system: SK-MEL-28 melanoma
[47] = test system: SK-MEL-5 melanoma
[48] = test system: SK-OV-3 ovarian
[49] = test system: SN12C renal
[50] = test system: SNB-19 CNS
[51] = test system: SNB-75 CNS
[52] = test system: SR leukemia
[53] = test system: SW-620 colon
[54] = test system: T-47D breast
[55] = test system: TK-10 renal
[56] = test system: U251 CNS
[57] = test system: UACC-257 melanoma
[58] = test system: UACC-62 melanoma
[59] = test system: UO-31 renal

O=C(c1ccc(Cl)cc1)C(c1c[nH]c2ccccc12)c1c[nH]c2ccccc12
GI50 [1]: 2120 nM
TGI [1]: 4220 nM
GI50 [2]: 18 µM
TGI [2]: 34.1 µM
GI50 [3]: 13.5 µM
TGI [3]: 31.6 µM
GI50 [4]: 1910 nM
TGI [4]: 4.17 µM
GI50 [5]: 4090 nM
TGI [5]: 14.4 µM
GI50 [6]: 2940 nM
TGI [6]: 14.3 µM
GI50 [7]: 3210 nM
TGI [7]: > 100 µM
GI50 [8]: 16.3 µM
TGI [8]: 31.2 µM
GI50 [9]: 4.36 µM
TGI [9]: 16.4 µM
GI50 [10]: 6.46 µM
TGI [10]: 20.8 µM
GI50 [11]: 2330 nM
TGI [11]: 5.8 µM
GI50 [12]: 1650 nM
TGI [12]: 3160 nM
GI50 [13]: 2.21 µM
TGI [13]: 6.16 µM
GI50 [14]: 2600 nM
TGI [14]: 8.35 µM
GI50 [15]: 13 µM
TGI [15]: 27.3 µM
GI50 [16]: 3320 nM
TGI [16]: 16.8 µM
GI50 [17]: 13.4 µM
TGI [17]: 45.8 µM
GI50 [18]: 2790 nM
TGI [18]: 6.97 µM
GI50 [19]: 4050 nM
TGI [19]: 16.8 µM
GI50 [20]: 2990 nM
TGI [20]: 9.64 µM
GI50 [21]: 8.98 µM
TGI [21]: 22 µM
GI50 [22]: 1680 nM
TGI [22]: 3260 nM
GI50 [23]: 2900 nM
TGI [23]: 12.7 µM
GI50 [24]: 3410 nM
TGI [24]: 15.9 µM
GI50 [25]: 2380 nM
TGI [25]: 8.25 µM
GI50 [26]: 4.87 µM
TGI [26]: 20.2 µM
GI50 [27]: 3850 nM
TGI [27]: 14.3 µM
GI50 [28]: 2690 nM
TGI [28]: 7.65 µM
GI50 [29]: 2690 nM
TGI [29]: 12.2 µM
GI50 [30]: 8.88 µM
TGI [30]: 24.7 µM
GI50 [31]: 4.05 µM
TGI [31]: 17.4 µM
GI50 [32]: 3650 nM
TGI [32]: 14.9 µM
GI50 [33]: 1740 nM
TGI [33]: 3.52 µM
GI50 [34]: 3.52 µM
TGI [34]: 15.8 µM
GI50 [35]: 2560 nM
TGI [35]: 7.18 µM
GI50 [36]: 5.23 µM
TGI [36]: 18.2 µM
GI50 [37]: 3790 nM
TGI [37]: 15.5 µM
GI50 [38]: 11.2 µM
TGI [38]: 24.2 µM
GI50 [39]: 3080 nM
TGI [39]: 12.7 µM
GI50 [40]: 3010 nM
TGI [40]: 15.4 µM
GI50 [41]: 2930 nM
TGI [41]: 9.21 µM
GI50 [42]: 4.85 µM
TGI [42]: 19.8 µM
GI50 [43]: 12.1 µM
TGI [43]: 24.9 µM
GI50 [44]: 5.53 µM
TGI [44]: 18.8 µM
GI50 [45]: 12.2 µM
TGI [45]: 26.1 µM
GI50 [46]: 2360 nM
TGI [46]: 6.42 µM
GI50 [47]: 11.3 µM
TGI [47]: 23.7 µM
GI50 [48]: 14.1 µM
TGI [48]: 27.7 µM
GI50 [49]: 3130 nM
TGI [49]: 12 µM
GI50 [50]: 15.4 µM
TGI [50]: 29.6 µM
GI50 [51]: 2430 nM
TGI [51]: 13.3 µM
GI50 [52]: 2730 nM
TGI [52]: 10.9 µM
GI50 [53]: 2990 nM
TGI [53]: 9.91 µM
GI50 [54]: 3010 nM
TGI [54]: 16 µM
GI50 [55]: 18.9 µM
TGI [55]: 33.2 µM
GI50 [56]: 10.8 µM
TGI [56]: 24.1 µM
GI50 [57]: 4.93 µM
TGI [57]: 18.1 µM
GI50 [58]: 4.49 µM
TGI [58]: 17.6 µM
GI50 [59]: 3.41 µM
TGI [59]: 17 µM

O=C(COc1ccc(NC(=O)Nc2ccc(Cl)c(Cl)c2)cc1)N=Nc1c(O)[nH]c2ccc(Br)cc12
TGI [1]: 920 nM
GI50 [2]: 1.56 µM
TGI [2]: 3.79 µM
GI50 [3]: 2.06 µM
TGI [3]: 5 µM
GI50 [4]: 2940 nM
TGI [4]: 9.12 µM
GI50 [5]: 28.8 nM
TGI [5]: 2.23 µM
GI50 [6]: 2050 nM
TGI [6]: 4.3 µM
GI50 [7]: 812 nM
TGI [7]: 6.13 µM
GI50 [8]: 1.83 µM
TGI [8]: 3.31 µM
GI50 [9]: 3.07 µM
TGI [9]: 9.52 µM
GI50 [10]: 2.37 µM
TGI [10]: 7.06 µM
GI50 [11]: 1820 nM
TGI [11]: 3.89 µM
GI50 [12]: 166 nM
TGI [12]: 369 nM
GI50 [13]: 6.13 µM
TGI [13]: 45.5 µM
GI50 [14]: 2020 nM
TGI [14]: 4.66 µM
GI50 [15]: 2.03 µM
TGI [15]: 3.95 µM
GI50 [16]: 1930 nM
TGI [16]: 4.45 µM
GI50 [17]: 2.25 µM
TGI [17]: 6.71 µM
GI50 [18]: 1860 nM
TGI [18]: 3.78 µM
GI50 [19]: 1880 nM
TGI [19]: 3.92 µM
GI50 [20]: 1260 nM
TGI [20]: 6.47 µM
GI50 [21]: 1.95 µM
TGI [21]: 4.12 µM
GI50 [22]: 1090 nM
TGI [22]: 2300 nM
GI50 [23]: 231 nM
TGI [23]: 0.634 µM
GI50 [24]: 1640 nM
TGI [24]: 3.03 µM
GI50 [25]: 2010 nM
TGI [25]: 4.71 µM
GI50 [26]: 1.81 µM
TGI [26]: 3.35 µM
GI50 [27]: 1550 nM
TGI [27]: 3.25 µM
GI50 [28]: 1750 nM
TGI [28]: 3.46 µM
GI50 [29]: 629 nM
TGI [29]: 2.69 µM
GI50 [30]: 1.98 µM
TGI [30]: 3.86 µM
GI50 [31]: 1.99 µM
TGI [31]: 3.99 µM
GI50 [32]: 1600 nM
TGI [32]: 3.54 µM
GI50 [33]: 1810 nM
TGI [33]: 3.62 µM
GI50 [34]: > 100 µM
TGI [34]: > 100 µM
GI50 [35]: 1080 nM
TGI [35]: 3.13 µM
GI50 [36]: 1.9 µM
TGI [36]: 4.1 µM
GI50 [37]: 1820 nM
TGI [37]: 3.89 µM
GI50 [38]: 2.34 µM
TGI [38]: 5.42 µM
GI50 [39]: 1150 nM
TGI [39]: 3.44 µM
GI50 [40]: 2190 nM
TGI [40]: 6.37 µM
GI50 [41]: 1520 nM
TGI [41]: 3.04 µM
GI50 [42]: 1.63 µM
TGI [42]: 5.15 µM
GI50 [43]: 1.63 µM
TGI [43]: 3.2 µM
GI50 [44]: 1.66 µM
TGI [44]: 3.12 µM
GI50 [45]: 1.97 µM
TGI [45]: 4.27 µM
GI50 [46]: 1830 nM
TGI [46]: 3.43 µM
GI50 [47]: 1.7 µM
TGI [47]: 3.09 µM
GI50 [48]: 2.08 µM
TGI [48]: 4.29 µM
GI50 [49]: 1820 nM
TGI [49]: 3.45 µM
GI50 [50]: 2.68 µM
TGI [50]: 8.42 µM
GI50 [51]: 1330 nM
TGI [51]: 2.84 µM
GI50 [52]: 2550 nM
TGI [52]: 7.98 µM
GI50 [53]: 1460 nM
TGI [53]: 3.06 µM
GI50 [54]: 1960 nM
TGI [54]: 4.57 µM
GI50 [55]: 2.46 µM
TGI [55]: 7.79 µM
GI50 [56]: 1.71 µM
TGI [56]: 3.39 µM
GI50 [57]: 1.79 µM
TGI [57]: 3.56 µM
GI50 [58]: 1.85 µM
TGI [58]: 3.77 µM
GI50 [59]: 11.5 µM
TGI [59]: 45.9 µM
